Assay results: US11384109B2, “Method for separating phenolic acid glucoside compounds from Diaphragma juglandis Fructu” (Jiangnan University, priority 2020, dated 2022)
Marks after values point to notes of the source that are not given here.

How the values were obtained:
[1] = system: aging model mice induced by D-galactose; assay: Antioxidant effects in subacute aging model mice induced by D-galactose (serum SOD by ELISA, liver MDA by colorimetry); type: in vivo, ICR mice; details: 500 mg/kg by gavage for 6 weeks; for Liver MDA / Serum SOD: 150 mg/kg D-galactose s.c., 24 hours after last administration, x ± s, 10 mice per group; for Liver MDA: 10% liver homogenate; for liver MDA content compared with the model group / serum SOD activity compared with the model group: result in words, One-way ANOVA Dunnett test
From the text: 1.1 Animals: ICR mice, 6 weeks old, 20-25 g, SPF grade, purchased from Shanghai Slack Experimental Animal Co., Ltd.
1.2 Reagents: D-galactose, purchased from Sigma, USA; malondialdehyde (MDA) kit, purchased from Nanjing Jiancheng Bioengineering Institute; superoxide dismutase (SOD) kit, purchased from Shanghai Aisalai Eliza Biotechnology Co., Ltd.
2.1 Animal grouping and administration: after one week of adaptive feeding, mice were randomly divided into 5 groups, 10 mice each group. The administration group was gavaged with Compounds 1-3, 500 mg/kg per compound. The blank group and aging model group were gavaged with equal volume of normal saline for 6 weeks. At the same time, 150 mg/kg D-galactose was injected subcutaneously into the aging model group and the administration group respectively to establish a subacute aging model of mice. The blank control group was injected with equal volume of normal saline for 6 weeks.
2.2 Sample preparation and index determination: 24 hours after the last administration, blood was collected from the eyeballs of mice; after dislocation for execution, the liver was removed, cleaned and ground at low temperature to prepare 10% tissue homogenate, which was centrifuged at 3500 rpm and 4° C. for 10 min, and supernatant was taken and stored at −20° C. The content of MDA in the liver tissue was determined by colorimetry, and the activity of SOD in serum was determined by ELISA.
2.3 Statistical analysis: the results were expressed as x±s. The results were analyzed by One-way ANOVA Dunnett test using SPSS 20 software.

[2] = Solubility description of the isolated compounds

| Molecule | Liver MDA [1] | Serum SOD [1] | liver MDA content compared with the model group [1] | serum SOD activity compared with the model group [1] | solubility in chloroform [2] | solubility in water, ethanol and the like [2] |
| --- | --- | --- | --- | --- | --- | --- |
| COc1ccc(O)c(O[C@@H]2O[C@H](CO)[C@@H](O)[C@H](O)[C@H]2O)c1 [Compound 1, 2-hydroxyl-5-methoxylphenyl-O-β-D-glucopyranoside] | 0.211 ± 0.019^a nmol/mg tissue | 94.90 ± 8.07^a U/mL | significantly (P<0.05) decreased | significantly (P<0.05) increased | insoluble | soluble |
| 2,6-dihydroxynaphthyl-O-β-D-glucopyranoside [Compound 3] | 0.183 ± 0.051^a nmol/mg tissue | 103.44 ± 15.75^a U/mL | significantly (P<0.05) lower than that in the model group | significantly (P<0.05) higher than that in the model group | insoluble | soluble |
| OC[C@H]1O[C@@H](Oc2ccc3cc(O)ccc3c2O[C@@H]2O[C@H](CO)[C@@H](O)[C@H](O)[C@H]2O)[C@H](O)[C@@H](O)[C@@H]1O [Compound 2, 6-hydroxylnaphthyl-1,2-di-O-β-D-glucopyranoside] | 0.198 ± 0.037^a nmol/mg tissue | 97.06 ± 10.18^a U/mL | significantly (P<0.05) decreased | significantly (P<0.05) increased |  |  |
